Data from patent US12729381B2, “Methods and compositions for inactivating interleukin-2-inducible t-cell kinase (ITK)” (priority 2020, dated 2026).
Entries after “also recorded” stand apart in the source; their conditions may differ.

Experiments:
[1] = system: other kinases including mTOR and AKT; assay: Western blot of phospho-kinases in T cells cultured with commercially available ITK inhibitors; type: cell-based; conditions: mouse T cells (10n, CTA056) and human PBMC T cells (10n); pAKT, pmTOR
Excerpt: Novel peptide inhibitor SLP76pTYR specifically targets ITK signaling and enhances Treg cell development. Since T cells from SLP76Y145FKI mice can separate GVHD from GVL, we sought to determine whether disruption of ITK signaling with pharmacological agents would have a similar effect. […] Thus, we sought to design a novel inhibitor that would explicitly target the SLP76-ITK interaction and signaling by preventing the SH2 domain of ITK from docking onto SLP76 at tyrosine 145. Since evolution usually selects residues at specific protein: protein interfaces for certain properties (Pletneva et al., 2006), we analyzed the physico-chemical and structural properties of the interface of the SH2 domain and SLP76-pY145 in our quest to generate a potent inhibitor of the ITK-SH2 domain: SLP76-pY145 interaction (FIG. 17A,B). […]
(FIG. 27A) WT mouse T cells were cultured with either 10n or vehicle, then lysed post-incubation, and lysates were western blotted for pITK (size 50-75 kDa), pPLCγ1 (size ~155 kDa), PERK (size ~42 kDa), pAKT (size ~60 kDa), and pmTOR (size 240 kDa). (FIG. 27B) Western blots from three experiments were quantitated and normalized to actin. […] (FIG. 27D) Western blots from three experiments were quantitated and normalized to actin. […] (FIG. 27F) Western blots from three experiments were quantitated and normalized to β-Actin. […]

S1P1 = S1P1 (Mus musculus, UniProt O08530); conditions: retention of T cells in secondary lymphoid organs; cited from earlier work
Sequence of S1P1 (O08530 whole entry): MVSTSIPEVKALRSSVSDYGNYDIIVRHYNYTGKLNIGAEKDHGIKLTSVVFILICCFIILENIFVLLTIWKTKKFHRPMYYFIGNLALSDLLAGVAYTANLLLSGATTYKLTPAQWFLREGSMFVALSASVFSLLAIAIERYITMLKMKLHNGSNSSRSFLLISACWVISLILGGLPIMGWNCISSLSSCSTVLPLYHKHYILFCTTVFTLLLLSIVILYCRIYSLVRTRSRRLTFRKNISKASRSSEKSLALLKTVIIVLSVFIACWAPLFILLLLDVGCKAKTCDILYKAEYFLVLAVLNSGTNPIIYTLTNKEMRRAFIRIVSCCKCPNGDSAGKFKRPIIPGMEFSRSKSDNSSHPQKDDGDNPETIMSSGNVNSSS

O=c1[nH]c2cc3nc(-c4ccc(-c5ccncc5)cc4)n(CCCN4CCCCC4)c3cc2nc1Cc1ccccc1 [CTA056]
specificity for ITK / inhibition of other kinases [1]: also inhibit several other kinases including mTOR and AKT; also recorded: not specific for ITK

CCCCCCCCc1ccc(CCC(N)(CO)CO)cc1 [FTY720]
effect on GVHD and GVL (S1P1): ameliorates GVHD while maintaining GVL effects

CCc1ccc2nc(Nc3cc(Cc4ccccc4)nc(NC4CCC(O)CC4)n3)sc2c1 (stereo not drawn) [GSK2250665A]
specificity for ITK / inhibition of other kinases [1]: also inhibit several other kinases including mTOR and AKT
